Active and inactive are the calls of the source. The rule behind the calls is not given here.
Tested on: rodent carcinogenicity bioassays, tumor incidence
Experiment: CCRIS carcinogenicity studies
Method in brief: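 NCI-built, expert-reviewed records of carcinogenicity and related test outcomes (mutagenicity, tumor promotion/inhibition) compiled from published and report sources, historical span 1985-2011, not updated.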

Compound: ClC(Cl)Cl
- carcinogen call (Species: FISH, Strain/Sex: ORYZIPIAS LATIPES/FEMALE, Route: IMMERSION, Dose: 0, 0.017, 0.151, 1.463 MG/L AQUEOUS SOLUTION FOR 6 MO (STUDY DURATION: 6 MO), Dose: 0, 0.017, 0.151, 1.463 MG/L AQUEOUS SOLUTION FOR 6 MO (STUDY DURATION: 6 MO)): inactive; negative
- carcinogen call (Species: FISH, Strain/Sex: ORYZIPIAS LATIPES/FEMALE, Route: IMMERSION, Dose: 0, 0.017, 0.151, 1.463 MG/L AQUEOUS SOLUTION FOR 9 MO (STUDY DURATION: 9 MO), Dose: 0, 0.017, 0.151, 1.463 MG/L AQUEOUS SOLUTION FOR 9 MO (STUDY DURATION: 9 MO)): inactive; negative
- carcinogen call (Species: FISH, Strain/Sex: ORYZIPIAS LATIPES/MALE, Route: IMMERSION, Dose: 0, 0.017, 0.151, 1.463 MG/L AQUEOUS SOLUTION FOR 6 MO (STUDY DURATION: 6 MO), Dose: 0, 0.017, 0.151, 1.463 MG/L AQUEOUS SOLUTION FOR 6 MO (STUDY DURATION: 6 MO)): inactive; negative
- carcinogen call (Species: FISH, Strain/Sex: ORYZIPIAS LATIPES/MALE, Route: IMMERSION, Dose: 0, 0.017, 0.151, 1.463 MG/L AQUEOUS SOLUTION FOR 9 MO (STUDY DURATION: 9 MO), Dose: 0, 0.017, 0.151, 1.463 MG/L AQUEOUS SOLUTION FOR 9 MO (STUDY DURATION: 9 MO)): inactive; negative
- carcinogen call (Species: MOUSE, Strain/Sex: B6C3F1/FEMALE, Route: ORAL, Dose: 0, 200, 400, 900, 1800 MG/L IN DRINKING WATER FOR 104 WK (STUDY DURATION: 24 MO), Dose: 0, 200, 400, 900, 1800 MG/L IN DRINKING WATER FOR 104 WK (STUDY DURATION: 24 MO)): inactive; negative
- carcinogen call (Species: MOUSE, Strain/Sex: B6C3F1/FEMALE, Route: ORAL, Dose: 0, 200, 400, 900, 1800 ML/L IN DRINKING WATER FOR AN AVERAGE DOSE OF 0, 34, 65, 130, 263 MG/KG BW/D FOR 104 WK (STUDY DU, Dose: 0, 200, 400, 900, 1800 ML/L IN DRINKING WATER FOR AN AVERAGE DOSE OF 0, 34, 65, 130, 263 MG/KG BW/D FOR 104 WK (STUDY DU): inactive; negative
- carcinogen call (Species: MOUSE, Strain/Sex: B6C3F1/MALE,FEMALE, Route: GAVAGE, Tumor Site: Type of Lesion: LIVER: HEPATOCELLULAR CARCINOMA): active; positive
- carcinogen call (Species: MOUSE, Strain/Sex: BDF1/FEMALE, Route: INHALATION, Dose: 0, 5, 30, 90 PPM IN AIR, 6 HR/D, 5 D/WK FOR 104 WK (STUDY DURATION: 104 WK), Dose: 0, 5, 30, 90 PPM IN AIR, 6 HR/D, 5 D/WK FOR 104 WK (STUDY DURATION: 104 WK), Tumor Site: Type of Lesion: LIVER: HEPATOCELLULAR CARCINOMA, HEPATOCELLULAR CARCINOMA AND ADENOMA): active; positive
- carcinogen call (Species: MOUSE, Strain/Sex: BDF1/MALE, Route: INHALATION, Dose: 0, 5, 30, 90 PPM IN AIR, 6 HR/D, 5 D/WK FOR 104 WK (STUDY DURATION: 104 WK), Dose: 0, 5, 30, 90 PPM IN AIR, 6 HR/D, 5 D/WK FOR 104 WK (STUDY DURATION: 104 WK), Tumor Site: Type of Lesion: LIVER: HEPATOCELLULAR CARCINOMA, HEPATOCELLULAR CARCINOMA AND ADENOMA, KIDNEYS: RENAL CELL CARCINOMA, RENAL CELL ADENOMA): active; positive
- carcinogen call (Species: RAT, Strain/Sex: F344/DUCRJ/MALE, Route: INHALATION, Dose: 0;25, 50, 100 PPM VAPOR CHAMBER 6 HR/D, 5 D/WK FOR 104 WK (STUDY DURATION: 104 WK), Dose: 0;25, 50, 100 PPM VAPOR CHAMBER 6 HR/D, 5 D/WK FOR 104 WK (STUDY DURATION: 104 WK)): inactive; negative
- carcinogen call (Species: RAT, Strain/Sex: F344/DUCRJ/MALE, Route: ORAL AND INHALATION, Dose: 0, 1,000 PPM IN DRINKING WATER AND 0, 25, 50, 100 PPM VAPOR CHAMBER 6 HR/D, 5 D/WK , BOTH FOR 104 WK (STUDY DURATION: 10, Dose: 0, 1,000 PPM IN DRINKING WATER AND 0, 25, 50, 100 PPM VAPOR CHAMBER 6 HR/D, 5 D/WK , BOTH FOR 104 WK (STUDY DURATION: 10, Tumor Site: Type of Lesion: KIDNEY: ADENOMA, CARCINOMA, THYROID: ADENOMA, CARCINOMA): active; positive
- carcinogen call (Species: RAT, Strain/Sex: F344/DUCRJ/MALE, Route: ORAL, Dose: 0, 1,000 PPM IN DRINKING FOR 104 WK (STUDY DURATION: 104 WK)): inactive; negative
- carcinogen call (Species: RAT, Strain/Sex: F344/FEMALE, Route: INHALATION, Dose: 0, 10, 30, 90 PPM IN AIR, 6 HR/D, 5 D/WK FOR 104 WK (STUDY DURATION: 104 WK), Dose: 0, 10, 30, 90 PPM IN AIR, 6 HR/D, 5 D/WK FOR 104 WK (STUDY DURATION: 104 WK)): inactive; negative
- carcinogen call (Species: RAT, Strain/Sex: F344/MALE, Route: INHALATION, Dose: 0, 10, 30, 90 PPM IN AIR, 6 HR/D, 5 D/WK FOR 104 WK (STUDY DURATION: 104 WK), Dose: 0, 10, 30, 90 PPM IN AIR, 6 HR/D, 5 D/WK FOR 104 WK (STUDY DURATION: 104 WK)): inactive; negative
- carcinogen call (Species: RAT, Strain/Sex: OSBORNE-MENDEL/MALE, Route: GAVAGE, Tumor Site: Type of Lesion: KIDNEY: ADENOMA, CARCINOMA): active; positive
- carcinogen call (Species: RAT, Strain/Sex: OSBORNE-MENDEL/MALE, Route: ORAL, Dose: 0, 200, 400, 900, 1800 MG/L IN DRINKING WATER FOR 104 WK (STUDY DURATION: 24 MO), Dose: 0, 200, 400, 900, 1800 MG/L IN DRINKING WATER FOR 104 WK (STUDY DURATION: 24 MO), Tumor Site: Type of Lesion: KIDNEY: TUBULAR CELL CARCINOMA OR ADENOCARCINOMA, TUBULAR CELL CARCINOMA, ADRENAL GLAND: CORTICAL ADENOMA, PHEOCHROMOCYT): active; positive
- carcinogen call (Species: RAT, Strain/Sex: OSBORNE-MENDEL/MALE, Route: ORAL, Dose: 0, 200, 400, 900, 1800 ML/L IN DRINKING WATER FOR AN AVERAGE DOSE OF 0, 19, 38, 81, 160 MG/KG BW/D FOR 104 WK (STUDY DUR, Dose: 0, 200, 400, 900, 1800 ML/L IN DRINKING WATER FOR AN AVERAGE DOSE OF 0, 19, 38, 81, 160 MG/KG BW/D FOR 104 WK (STUDY DUR, Tumor Site: Type of Lesion: KIDNEY (TUBULAR CELL): ADENOMA OR ADENOCARCINOMA): active; positive
- carcinogen call (Species: RAT, Strain/Sex: WISTAR/FEMALE, Route: ORAL, Dose: 0, 2 ML/L (24 MILLIMOLAR) IN DRINKING WATER FOR 72 WK THEN DOSE HALVED FOR DURATION OF STUDY (STUDY DURATION: LIFETIME), Tumor Site: Type of Lesion: LIVER: NEOPLASTIC NODULES): active; positive
- carcinogen call (Species: RAT, Strain/Sex: WISTAR/MALE, Route: ORAL, Dose: 0, 2 ML/L (24 MILLIMOLAR) IN DRINKING WATER FOR 72 WK THEN DOSE HALVED FOR DURATION OF STUDY (STUDY DURATION: LIFETIME)): inactive; negative
- carcinogen call (Species: Rat, Strain/Sex: F344/DuCrj/ Male (50 per group), Route: Inhalation and oral (drinking water), Dose: 0, 25, 50, 100 ppm in air, 6 hr/d, 5 d/wk for 104 wk, each group also given chloroform-formulated drinking water (1000 p, Dose: 0, 25, 50, 100 ppm in air, 6 hr/d, 5 d/wk for 104 wk, each group also given chloroform-formulated drinking water (1000 p, Tumor Site: Type of Lesion: KIDNEY: renal-cell adenomas and carcinomas): active; positive, positive trend; significant increase in high dose group; exposure leve
- carcinogen call (Species: Rat, Strain/Sex: F344/DuCrj/ Male (50 per group), Route: Inhalation, Dose: 0, 25, 50, 100 ppm in air, 6 hr/d, 5 d/wk for 104 wk, Dose: 0, 25, 50, 100 ppm in air, 6 hr/d, 5 d/wk for 104 wk, Tumor Site: Type of Lesion: KIDNEY: one renal-cell adenoma in the high dose group): inactive; negative

Source: PubChem BioAssay AID1259411 (Chemical Carcinogenesis Research Information System (CCRIS), 2018)
